Results published in the kinase profiling compilation of Christmann-Franck et al. (2016).
Where “and” joins values, the source holds several entries; their conditions need not be identical. Identical values can stand only once.

How the values were obtained:
Test in all cases: radiometric filter-binding kinase assay, Kinaseprofiler
HCK (human) = HCK (human) (UniProt P08631)
MYLK (human) = MYLK (human) (UniProt Q15746); details: ATP 70 µM
MAPK14 (human) = MAPK14 (human) (UniProt Q16539); details: ATP 90 µM
MAP3K9 (human) = MAP3K9 (human) (UniProt P80192); details: ATP 45 µM
PDGFRA (human) = PDGFRA (human) (UniProt P16234); details: ATP 120 µM
IKBKB (human) = IKBKB (human) (UniProt O14920); details: ATP 10 µM
PKN2 (human) = PKN2 (human) (UniProt Q16513); details: ATP 15 µM
MAP2K6 (human) = MAP2K6 (human) (UniProt P52564); details: ATP 10 µM
LCK (human) = LCK (human) (UniProt P06239); details: compound 1.0 µM; ATP 90 µM
PLK2 (human) = PLK2 (human) (UniProt Q9NYY3); details: ATP 120 µM
PRKCB2 (human) = PRKCB2 (human) (UniProt P05771); details: ATP 10 µM
FER (human) = FER (human) (UniProt P16591); details: ATP 70 µM
AURKC (human) = AURKC (human) (UniProt Q9UQB9); details: ATP 15 µM
PIM2 (human) = PIM2 (human) (UniProt Q9P1W9); details: ATP 15 µM
STK4 (human) = STK4 (human) (UniProt Q13043); details: ATP 90 µM
PIM1 (human) = PIM1 (human) (UniProt P11309); details: ATP 90 µM
RPS6KA4 KD1 KD2 (human) = RPS6KA4 KD1 KD2 (human) (UniProt O75676); details: ATP 45 µM
MAPK1 (human) = MAPK1 (human) (UniProt P28482); details: ATP 155 µM
DYRK2 (human) = DYRK2 (human) (UniProt Q92630); details: ATP 15 µM
CDK3 CCNE1 (human) = CDK3 CCNE1 (human) (UniProt Q00526+P24864); details: ATP 200 µM
PASK (human) = PASK (human) (UniProt Q96RG2); details: ATP 15 µM
GSG2 (human) = GSG2 (human) (UniProt Q8TF76); details: ATP 70 µM
TSSK2 (human) = TSSK2 (human) (UniProt Q96PF2); details: ATP 15 µM
TAOK2 (human) = TAOK2 (human) (UniProt Q9UL54); details: ATP 15 µM
MAP3K7 (human) = MAP3K7 (human) (UniProt O43318); details: ATP 45 µM
EPHA4 (human) = EPHA4 (human) (UniProt P54764); details: ATP 15 µM

Sequence of HCK (human) (P08631 whole entry, looked up): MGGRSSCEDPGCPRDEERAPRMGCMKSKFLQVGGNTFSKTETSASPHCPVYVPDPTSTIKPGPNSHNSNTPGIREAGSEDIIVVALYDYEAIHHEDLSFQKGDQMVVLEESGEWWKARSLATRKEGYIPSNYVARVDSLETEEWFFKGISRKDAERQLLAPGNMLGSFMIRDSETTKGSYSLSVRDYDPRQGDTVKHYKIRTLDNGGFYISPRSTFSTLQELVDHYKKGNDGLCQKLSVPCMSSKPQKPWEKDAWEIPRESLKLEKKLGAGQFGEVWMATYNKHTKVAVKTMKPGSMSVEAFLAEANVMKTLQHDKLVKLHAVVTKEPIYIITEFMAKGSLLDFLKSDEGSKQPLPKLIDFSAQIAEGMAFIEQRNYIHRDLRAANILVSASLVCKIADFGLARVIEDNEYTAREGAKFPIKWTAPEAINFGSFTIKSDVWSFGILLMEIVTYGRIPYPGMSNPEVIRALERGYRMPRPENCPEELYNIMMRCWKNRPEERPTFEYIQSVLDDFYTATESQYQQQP
Sequence of PLK2 (human) (Q9NYY3 whole entry, looked up): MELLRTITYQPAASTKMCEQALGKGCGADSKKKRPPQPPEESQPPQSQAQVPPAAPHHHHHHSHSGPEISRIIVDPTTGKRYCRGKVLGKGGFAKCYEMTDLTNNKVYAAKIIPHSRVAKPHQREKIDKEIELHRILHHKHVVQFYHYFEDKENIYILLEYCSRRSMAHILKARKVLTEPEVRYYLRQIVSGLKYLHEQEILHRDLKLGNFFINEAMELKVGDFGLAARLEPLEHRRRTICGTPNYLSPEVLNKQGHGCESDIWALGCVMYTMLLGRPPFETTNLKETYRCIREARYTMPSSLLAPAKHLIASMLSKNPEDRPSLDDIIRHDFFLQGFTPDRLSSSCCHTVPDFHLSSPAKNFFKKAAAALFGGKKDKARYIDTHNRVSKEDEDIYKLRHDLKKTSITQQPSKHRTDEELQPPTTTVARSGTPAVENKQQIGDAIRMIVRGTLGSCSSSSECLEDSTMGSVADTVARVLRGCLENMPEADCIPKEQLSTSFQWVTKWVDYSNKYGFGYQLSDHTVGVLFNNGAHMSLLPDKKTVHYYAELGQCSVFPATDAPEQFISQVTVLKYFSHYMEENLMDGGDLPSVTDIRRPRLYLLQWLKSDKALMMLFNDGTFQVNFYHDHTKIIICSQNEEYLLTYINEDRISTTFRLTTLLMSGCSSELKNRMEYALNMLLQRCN
Sequence of PASK (human) (Q96RG2 whole entry, looked up): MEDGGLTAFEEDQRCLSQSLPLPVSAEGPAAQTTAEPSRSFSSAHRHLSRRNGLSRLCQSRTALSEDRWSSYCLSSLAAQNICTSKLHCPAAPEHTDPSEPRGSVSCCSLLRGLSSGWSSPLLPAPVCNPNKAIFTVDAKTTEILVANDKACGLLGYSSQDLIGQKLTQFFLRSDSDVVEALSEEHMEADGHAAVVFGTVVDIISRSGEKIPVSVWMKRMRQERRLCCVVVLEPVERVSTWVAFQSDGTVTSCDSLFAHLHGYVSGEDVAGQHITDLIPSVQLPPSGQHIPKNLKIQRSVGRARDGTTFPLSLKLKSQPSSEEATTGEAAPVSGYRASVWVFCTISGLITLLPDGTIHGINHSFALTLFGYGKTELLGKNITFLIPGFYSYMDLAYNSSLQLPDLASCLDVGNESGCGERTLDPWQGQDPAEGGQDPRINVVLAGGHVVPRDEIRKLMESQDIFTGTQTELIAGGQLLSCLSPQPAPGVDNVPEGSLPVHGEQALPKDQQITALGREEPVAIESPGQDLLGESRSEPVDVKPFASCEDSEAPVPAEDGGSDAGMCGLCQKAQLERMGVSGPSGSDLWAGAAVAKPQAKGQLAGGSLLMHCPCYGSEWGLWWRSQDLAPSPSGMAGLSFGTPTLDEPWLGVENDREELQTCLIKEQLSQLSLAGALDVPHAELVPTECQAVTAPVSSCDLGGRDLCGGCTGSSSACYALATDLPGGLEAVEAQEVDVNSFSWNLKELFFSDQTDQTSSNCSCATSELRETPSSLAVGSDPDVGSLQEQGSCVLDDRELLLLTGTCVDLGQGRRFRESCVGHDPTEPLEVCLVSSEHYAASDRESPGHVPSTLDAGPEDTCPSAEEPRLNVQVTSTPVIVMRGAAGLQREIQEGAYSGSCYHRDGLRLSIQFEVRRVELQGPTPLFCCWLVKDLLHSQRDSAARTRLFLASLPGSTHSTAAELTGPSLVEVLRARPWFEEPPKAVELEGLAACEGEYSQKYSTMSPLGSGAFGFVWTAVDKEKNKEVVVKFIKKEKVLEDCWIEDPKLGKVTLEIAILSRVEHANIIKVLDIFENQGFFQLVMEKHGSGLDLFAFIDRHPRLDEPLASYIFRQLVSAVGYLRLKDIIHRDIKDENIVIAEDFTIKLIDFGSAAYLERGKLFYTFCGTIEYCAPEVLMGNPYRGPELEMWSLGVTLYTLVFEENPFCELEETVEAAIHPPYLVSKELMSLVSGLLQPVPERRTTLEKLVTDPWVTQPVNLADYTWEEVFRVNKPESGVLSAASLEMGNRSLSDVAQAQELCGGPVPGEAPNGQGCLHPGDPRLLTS
Sequence of DYRK2 (human) (Q92630 whole entry, looked up): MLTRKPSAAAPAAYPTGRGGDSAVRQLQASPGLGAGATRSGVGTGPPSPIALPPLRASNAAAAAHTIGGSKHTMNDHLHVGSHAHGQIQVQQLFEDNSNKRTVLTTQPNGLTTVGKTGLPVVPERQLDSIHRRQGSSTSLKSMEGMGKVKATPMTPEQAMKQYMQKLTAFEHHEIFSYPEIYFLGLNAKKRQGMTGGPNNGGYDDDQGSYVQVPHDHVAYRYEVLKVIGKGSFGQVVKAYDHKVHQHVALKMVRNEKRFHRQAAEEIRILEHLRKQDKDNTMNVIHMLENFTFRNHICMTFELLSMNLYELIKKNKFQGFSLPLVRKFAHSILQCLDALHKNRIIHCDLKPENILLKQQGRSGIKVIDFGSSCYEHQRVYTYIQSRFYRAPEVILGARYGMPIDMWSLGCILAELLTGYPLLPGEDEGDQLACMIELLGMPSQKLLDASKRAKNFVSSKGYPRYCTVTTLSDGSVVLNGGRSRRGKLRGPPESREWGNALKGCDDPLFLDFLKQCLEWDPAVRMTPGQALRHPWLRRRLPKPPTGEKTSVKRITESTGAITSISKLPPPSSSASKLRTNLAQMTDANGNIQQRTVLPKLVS
Sequence of PIM2 (human) (Q9P1W9 whole entry, looked up): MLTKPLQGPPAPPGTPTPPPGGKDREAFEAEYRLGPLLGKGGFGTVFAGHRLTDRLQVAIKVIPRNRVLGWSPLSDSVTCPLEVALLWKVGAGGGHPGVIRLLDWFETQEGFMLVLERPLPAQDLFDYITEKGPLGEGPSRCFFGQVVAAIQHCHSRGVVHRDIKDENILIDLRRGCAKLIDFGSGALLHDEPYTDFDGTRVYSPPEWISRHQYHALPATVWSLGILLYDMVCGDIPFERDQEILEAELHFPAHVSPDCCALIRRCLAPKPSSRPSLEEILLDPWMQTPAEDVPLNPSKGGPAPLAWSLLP
Sequence of MAP3K9 (human) (P80192 whole entry, looked up): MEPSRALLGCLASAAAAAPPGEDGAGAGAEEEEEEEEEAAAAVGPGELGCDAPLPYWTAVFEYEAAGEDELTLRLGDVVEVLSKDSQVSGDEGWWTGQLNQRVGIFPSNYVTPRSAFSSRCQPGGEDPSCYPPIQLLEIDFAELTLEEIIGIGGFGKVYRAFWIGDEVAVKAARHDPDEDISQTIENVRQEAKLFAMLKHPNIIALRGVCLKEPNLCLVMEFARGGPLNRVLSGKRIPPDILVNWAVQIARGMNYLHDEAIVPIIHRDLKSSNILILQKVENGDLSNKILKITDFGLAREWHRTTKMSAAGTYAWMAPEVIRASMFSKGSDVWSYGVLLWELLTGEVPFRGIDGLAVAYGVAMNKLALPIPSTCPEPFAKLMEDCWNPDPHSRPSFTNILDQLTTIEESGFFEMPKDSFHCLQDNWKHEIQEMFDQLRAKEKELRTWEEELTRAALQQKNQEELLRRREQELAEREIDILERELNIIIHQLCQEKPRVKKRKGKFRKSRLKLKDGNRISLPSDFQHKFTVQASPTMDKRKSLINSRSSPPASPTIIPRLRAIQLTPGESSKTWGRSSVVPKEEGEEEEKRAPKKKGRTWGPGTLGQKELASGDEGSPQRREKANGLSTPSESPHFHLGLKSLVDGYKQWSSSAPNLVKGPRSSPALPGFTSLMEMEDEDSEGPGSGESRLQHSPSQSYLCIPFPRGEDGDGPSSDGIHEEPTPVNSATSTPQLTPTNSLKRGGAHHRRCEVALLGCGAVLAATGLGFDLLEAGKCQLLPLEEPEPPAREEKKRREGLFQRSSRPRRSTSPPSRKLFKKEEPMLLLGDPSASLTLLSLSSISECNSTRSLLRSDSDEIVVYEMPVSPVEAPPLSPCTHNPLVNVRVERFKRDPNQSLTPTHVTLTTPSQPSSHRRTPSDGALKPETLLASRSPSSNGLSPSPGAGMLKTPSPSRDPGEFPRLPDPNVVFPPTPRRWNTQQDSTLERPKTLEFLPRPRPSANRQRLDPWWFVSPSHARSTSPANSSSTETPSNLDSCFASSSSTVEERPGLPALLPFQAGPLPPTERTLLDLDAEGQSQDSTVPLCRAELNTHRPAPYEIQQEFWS
Sequence of TSSK2 (human) (Q96PF2 whole entry, looked up): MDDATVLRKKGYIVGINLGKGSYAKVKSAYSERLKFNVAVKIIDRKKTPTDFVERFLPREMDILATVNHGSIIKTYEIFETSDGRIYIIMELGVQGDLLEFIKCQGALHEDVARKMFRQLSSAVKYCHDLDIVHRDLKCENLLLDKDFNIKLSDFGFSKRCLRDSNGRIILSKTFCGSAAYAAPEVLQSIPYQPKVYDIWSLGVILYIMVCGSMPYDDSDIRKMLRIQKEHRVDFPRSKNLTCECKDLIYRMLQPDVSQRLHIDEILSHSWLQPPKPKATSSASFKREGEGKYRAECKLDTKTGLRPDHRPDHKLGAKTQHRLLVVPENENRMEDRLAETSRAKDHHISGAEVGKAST

With `O=C1c2ccccc2-c2n[nH]c3cccc1c23` the residual activity (HCK (human); compound 1.0 µM, ATP 45 µM) was 80%, the residual activity (HCK (human); compound 1.0 µM, ATP 70 µM) was 57% and the residual activity (HCK (human); compound 10.0 µM, ATP 45 µM) was 83%. The residual activity (HCK (human); compound 10.0 µM, ATP 70 µM) was 27%, the residual activity (MYLK (human); compound 1.0 µM) was 29% and the residual activity (MYLK (human); compound 10.0 µM) was 3%. It also gave a residual activity (MAPK14 (human); compound 1.0 µM) of 96%, a residual activity (MAPK14 (human); compound 10.0 µM) of 85% and a residual activity (MAP3K9 (human); compound 1.0 µM) of 13%. For the same compound, the residual activity (MAP3K9 (human); compound 10.0 µM) was 4%, the residual activity (PDGFRA (human); compound 1.0 µM) was 108% and the residual activity (PDGFRA (human); compound 10.0 µM) was 86%. The residual activity (IKBKB (human); compound 1.0 µM) was 78%, the residual activity (IKBKB (human); compound 10.0 µM) was 43% and the residual activity (PKN2 (human); compound 1.0 µM) was 74%. The residual activity (PKN2 (human); compound 10.0 µM) was 32%, the residual activity (MAP2K6 (human); compound 1.0 µM) was 82% and the residual activity (MAP2K6 (human); compound 10.0 µM) was 13%. For the same compound, the residual activity (LCK (human)) was 70% and 89%, the residual activity (PLK2 (human); compound 1.0 µM) was 85% and the residual activity (PLK2 (human); compound 10.0 µM) was 61%. It also gave a residual activity (PRKCB2 (human); compound 1.0 µM) of 108%, a residual activity (PRKCB2 (human); compound 10.0 µM) of 102% and a residual activity (FER (human); compound 1.0 µM) of 75%. The residual activity (FER (human); compound 10.0 µM) was 51%, the residual activity (AURKC (human); compound 1.0 µM) was 9% and the residual activity (AURKC (human); compound 10.0 µM) was 4%. The residual activity (PIM2 (human); compound 1.0 µM) was 58%, the residual activity (PIM2 (human); compound 10.0 µM) was 21% and the residual activity (STK4 (human); compound 1.0 µM) was 52%. It also gave a residual activity (STK4 (human); compound 10.0 µM) of 21%, a residual activity (PIM1 (human); compound 1.0 µM) of 68% and a residual activity (PIM1 (human); compound 10.0 µM) of 18%. For the same compound, the residual activity (RPS6KA4 KD1 KD2 (human); compound 1.0 µM) was 76%, the residual activity (RPS6KA4 KD1 KD2 (human); compound 10.0 µM) was 36% and the residual activity (MAPK1 (human); compound 1.0 µM) was 88%. It also gave a residual activity (MAPK1 (human); compound 10.0 µM) of 55%, a residual activity (DYRK2 (human); compound 1.0 µM) of 4% and a residual activity (DYRK2 (human); compound 10.0 µM) of -5%. For the same compound, the residual activity (CDK3 CCNE1 (human); compound 1.0 µM) was 26%, the residual activity (CDK3 CCNE1 (human); compound 10.0 µM) was 14% and the residual activity (PASK (human); compound 1.0 µM) was 125%. For the same compound, the residual activity (PASK (human); compound 10.0 µM) was 81%, the residual activity (GSG2 (human); compound 1.0 µM) was 10% and the residual activity (GSG2 (human); compound 10.0 µM) was -1%. The residual activity (TSSK2 (human); compound 1.0 µM) was 92%, the residual activity (TSSK2 (human); compound 10.0 µM) was 86% and the residual activity (TAOK2 (human); compound 1.0 µM) was 101%. It also gave a residual activity (TAOK2 (human); compound 10.0 µM) of 69%, a residual activity (MAP3K7 (human); compound 1.0 µM) of 41% and a residual activity (MAP3K7 (human); compound 10.0 µM) of 19%. For the same compound, the residual activity (EPHA4 (human); compound 1.0 µM) was 105% and the residual activity (EPHA4 (human); compound 10.0 µM) was 106%.
